In data set [1] the test system is target polynucleotide 5'-[…]-3' (pol and nef genes of HIV). Kind of data set: Melting temperature of oligonucleotide clamp/target polynucleotide complex (260 nm absorption v. temperature curve). Particulars: half maximum of the 260 nm absorption v. temperature curve. It counts as binding. Here is the method: Preferably, stability of oligonucleotide clamp/target polynucleotide complexes are determined by way of melting, or strand dissociation, curves. The temperature of fifty percent strand dissociation is taken as the melting temperature, Tm, which, in turn, provides a convenient measure of stability. Tm measurements are typically carried out in a saline solution at neutral pH with target and clamp concentrations at between about 1.0-2.0 μM. Typical conditions are as follows: 150 mM NaCl and 10 mM MgCl2 in a 10 mM sodium phosphate buffer (pH 7.0) or in a 10 mM Tris-HCl buffer (pH 7.0); or like conditions. Data for melting curves are accumulated by heating a sample of the oligonucleotide clamp/target polynucleotide complex from room temperature to about 85°-90° C. As the temperature of the sample increases, absorbance of 260 nm light is monitored at 1° C. intervals, e.g. using a Cary (Australia) model 1E or a Hewlett-Packard (Palo Alto, Calif.) model HP 8459 UV/VIS spectrophotometer and model HP 89100A temperature controller, or like instruments.
The oligonucleotides and oligonucleotide clamps listed in the Table I below were synthesized in accordance with Example 1 for specific binding to the following single stranded or double stranded target polynucleotides:
The melting temperature of the following compounds were determined by computing the half maximum of the 260 nm absorption v. temperature curve, as described above: DL015:39.0° C.; DL014: 58° C.; DL013: 68.0° C.; DL021: 67.5° C.; DL022: 67.5° C.; and control (two unconnected oligonucleotides without binding moieties having sequences: 3'-TTTTCTTTTCCCCCCT-5' and 5'-TTTTC^Me TTTT(C^Me)6-3'): 32.0° C.

Data set [2] has as its system HIV (infected ATH8 cells). Kind of data set: ATH8 cell assay: inhibition of the cytopathic (lytic) effects of HIV infection on ATH8 cells. It counts as cell-based. To be noted: 2 μM and 8 μM. How it is done: (§1) Each of the compounds of Table I were tested in an ATH8 cell assay to assess the inhibition of the cytopathic effects of HIV infection on the ATH8 cells. The ATH8 assay is described in the following reference: Matsukura, pages 285-304 in Antisense RNA and DNA (Wiley-Liss, New York, 1992).
(§2) The cytopathic effect examined in the assay was the lytic effect of HIV and/or drug on the ATH8 cells. A measure of the degree of viral activity is the degree to which cells are lysed at the end of a given time period in culture. Protection against lysis is measured by the size of pellet formed after cells are harvested from culture and centrifuged, as described in the references cited above.
(§3) Curves 1 and 2 illustrate results from positive and negative controls, i.e. curve 1 illustrates the results for uninfected ATH8 cells without drug (negative control) and curve 2 illustrates the results for infected ATH8 cells without drug (positive control). Curves 3 and 4 illustrate results from cultures containing 8 μM of oligonucleotide clamp in infected and uninfected ATH8 cells, respectively. Curves 5 and 6 illustrate results from cultures containing 2 μM of oligonucleotide clamp in infected and uninfected ATH8 cells, respectively.
Background: Cytopathic effects are the visible damage that an infection or toxin causes in cultured cells.

The test system of data set [3] is ATH8 cells. Kind of data set: Toxicity to ATH8 cells in the ATH8 cell assay. It counts as cell-based. To be noted: 2 μM and 8 μM. How it is done:
as §1, §2, §3

The substance “5'-CACTTTTCTTTTGGGGGGTCACACTCCCCCCTTTTCTTTTAC (chemistry not given here) [DL015]” displayed a melting temperature in data set [1] of 39.0 °C. Substance “5'-Chol-TTTTCTTTTCACACTTTTCTTTTGGGGGGTCACACTCCCCCC-Chol [DL021]” returned a melting temperature in data set [1] of 67.5 °C. The substance “5'-CACTTTTCTTTTGGGGGGTCACACTCCCCCCTTTTCTTTTAC-Chol [DL014]” had a melting temperature in data set [1] of 58 °C. Also, the “change in pellet size versus time (FIG. 3), effect in words” value in data set [2] was “clear and positive effect at both concentrations”. For the same substance, the “toxicity (FIG. 3), in words” value in data set [3] is “without toxicity”. The substance “5'-Chol-CACTTTTCTTTTCCCCCCTCACACACTCCCCCCTTTTCTTTTAC-Chol [DL022]” displayed a melting temperature in data set [1] of 67.5 °C. The same measure, in the same setting: next, “5'-Chol-CACTTTTCTTTTGGGGGGTCACACTCCCCCCTTTTCTTTTAC-Chol [DL013]”: 68.0 °C.

(Values after US5741643A, “Oligonucleotide clamps” (Lynx Therapeutics, Inc., priority 1995, dated 1998).)
